# Test results reported in patent publication US9216962B2 (priority 2011, dated 2015).
# Target: recombinant human HDAC1 (Homo sapiens (Human), UniProt Q13547)
# Details: not given
# Chain of recombinant human HDAC1 (Q13547 whole entry): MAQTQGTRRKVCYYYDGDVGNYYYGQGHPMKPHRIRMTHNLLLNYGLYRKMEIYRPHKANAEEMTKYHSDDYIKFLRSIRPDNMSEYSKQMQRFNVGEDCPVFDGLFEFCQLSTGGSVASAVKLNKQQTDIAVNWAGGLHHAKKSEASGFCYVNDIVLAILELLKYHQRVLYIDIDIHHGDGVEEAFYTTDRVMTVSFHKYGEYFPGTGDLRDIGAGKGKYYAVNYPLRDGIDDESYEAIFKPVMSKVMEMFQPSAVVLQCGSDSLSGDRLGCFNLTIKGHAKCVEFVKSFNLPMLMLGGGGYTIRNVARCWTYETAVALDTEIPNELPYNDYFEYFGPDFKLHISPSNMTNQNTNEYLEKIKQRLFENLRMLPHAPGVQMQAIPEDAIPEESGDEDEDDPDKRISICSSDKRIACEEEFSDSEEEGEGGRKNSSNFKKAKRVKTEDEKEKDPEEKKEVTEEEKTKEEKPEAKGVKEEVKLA
row,SMILES,HDAC1 IC50
1,CC(C)Cc1sc(-c2nccs2)nc1C(=O)NCC(=O)NO [CFH340],NA^a

# Same assay, conditions: read-out: HDAC1 IC50
row,SMILES,IC50 [µM]
1,C=Cc1sc(-c2nccs2)nc1C(=O)NCCCNC(=O)CS [CFH367-S],1.83
2,Cc1nc(-c2nc(C(=O)NCCCCC(=O)NO)c(C3CC3)s2)sc1C [CFH395-M],0.05
3,Cc1cnc(-c2nc(C(=O)NCCCCC(=O)NO)c(CC(C)C)s2)s1 [CFH397-2],0.917
4,Cc1nc(-c2nc(C(=O)NCCCCC(=O)NO)c(CC(C)C)s2)cs1 [CFH397],0.438
5,CC(C)Cc1sc(-c2nccs2)nc1C(=O)NCCCCCCC(=O)NO [CFH410],0.178
6,CC(C)/C=C/c1sc(-c2nccs2)nc1C(=O)NCCCNC(=O)CS [CFH411],0.956
7,CC(C)Cc1sc(-c2nccs2)nc1C(=O)Nc1cccc(/C=C/C(=O)NO)c1 [CFH429],0.657
8,O=C(CCCCNC(=O)c1nc(-c2ncc(-c3ccccc3)s2)sc1C1CC1)NO [CFH443-5],0.032
9,CC(C)Cc1sc(-c2nccs2)nc1C(=O)NCCCCC(=O)Nc1ccccc1N [CFH494],5.91
10,CC(C)Cc1sc(-c2nccs2)nc1C(=O)NCCCCCC(=O)Nc1ccccc1N [CFH508],0.984
11,CC(C)Cc1sc(-c2nccs2)nc1C(=O)NCCCCCCC(=O)Nc1ccccc1N [CFH522],15.3
